Assay results from patent US10219516B2, “Molecules having pesticidal utility, and intermediates, compositions, and processes, related thereto” (priority 2015, dated 2019).
Like-named read-outs stand apart in the source and are kept apart here.

Legend:
[1] = tested on: Beet Armyworm (Spodoptera exigua, LAPHEG); assay: Bioassay on Beet Armyworm (BAW), 128-well diet tray assay; type: in vivo
How it was run: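 Artificial diet surface-treated with 50 μg/cm^2 test molecule in 90:10 acetone-water, dried, then infested with one to five second instar larvae per well. Held covered and vented at 25° C., 14:10 light-dark for five to seven days; percent mortality recorded per well and averaged over eight wells.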

[2] = tested on: Cabbage Looper (Trichoplusia ni, TRIPNI); assay: Bioassay on Cabbage Looper (CL), 128-well diet tray assay; type: in vivo; settings: Trichoplusia ni
How it was run: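 Test molecule is dissolved in 90:10 acetone-water and applied at 50 μg/cm^2 onto artificial diet, then dried. One to five second-instar larvae go into each of eight wells. Trays, sealed but vented, stay at 25° C., 14:10 light-dark, five to seven days, after which mortality is averaged.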

[3] = Species BAW (Beet Armyworm), read-out: BAW (Biological Results, rating)
[4] = Species CL (Cabbage Looper), read-out: CL (Biological Results, rating)
[5] = Beet Armyworm, 128-well diet tray assay, read-out: BAW rating
[6] = Cabbage Looper, 128-well diet tray assay, read-out: CL rating

Structure (SMILES)	pest or weed control at 50 µg/cm2 [1, 3]	pest or weed control at 50 µg/cm2 [2, 4]	pest or weed control at 50 µg/cm2 [1, 5]	pest or weed control at 50 µg/cm2 [2, 6]
N#Cc1ccc(NC(=O)c2cc(NC(=O)[C@H]3[C@H](c4cc(Cl)cc(Cl)c4)C3(Cl)Cl)ccc2F)c(F)c1 (relative stereo) [F93, trans-N-(4-Cyano-2-fluorophenyl)-5-(2,2-dichloro-3-(3,5-dichlorophenyl)cyclopropane-1-carboxamido)-2-fluorobenzamide]	50 to 100%	50 to 100%		
O=C(Nc1cccc(Cl)c1)c1cc(NC(=O)[C@H]2[C@H](c3cc(Cl)cc(Cl)c3)C2(Cl)Cl)ccc1Cl (relative stereo) [F43, trans-2-Chloro-N-(3-chlorophenyl)-5-(2,2-dichloro-3-(3,5-dichlorophenyl)cyclopropane-1-carboxamido)benzamide]	50 to 100%	50 to 100%		
N#CC1(C(=O)Nc2ccc(NC(=O)c3cc(NC(=O)[C@H]4[C@H](c5cc(Cl)cc(Cl)c5)C4(Cl)Cl)ccc3Cl)cc2)CC1 (relative stereo) [PF109, trans-2-Chloro-N-(4-(1-cyanocyclopropane-1-carboxamido)phenyl)-5-(2,2-dichloro-3-(3,5-dichlorophenyl)cyclopropane-1-carboxamido)benzamide]			50 to 100%	50 to 100%
O=C(Nc1c(F)cccc1F)c1cc(NC(=O)[C@H]2[C@H](c3cc(Cl)cc(C(F)(F)F)c3)C2(Cl)Cl)ccc1Cl (relative stereo) [F89, trans-2-Chloro-5-(2,2-dichloro-3-(3-chloro-5-(trifluoromethyl)phenyl)cyclopropane-1-carboxamido)-N-(2,6-difluorophenyl)benzamide]	50 to 100%	50 to 100%		
COc1c(Cl)cc([C@H]2[C@H](C(=O)Nc3ccc(Cl)c(C(=O)Nc4ccc(NC(C)=O)cc4)c3)C2(Cl)Cl)cc1Cl (relative stereo) [F181, trans-N-(4-Acetamidophenyl)-2-chloro-5-(2,2-dichloro-3-(3,5-dichloro-4-methoxyphenyl)cyclopropane-1-carboxamido)benzamide]	50 to 100%	50 to 100%		
CC(=O)N(C)c1ccc(NC(=O)c2cc(NC(=O)[C@H]3[C@H](c4cc(Cl)cc(Cl)c4)C3(Cl)Cl)ccc2Cl)cc1 (relative stereo) [PF14, trans-2-Chloro-5-(2,2-dichloro-3-(3,5-dichlorophenyl)cyclopropane-1-carboxamido)-N-(4-(N-methylacetamido)phenyl)benzamide]			50 to 100%	50 to 100%
O=C(Nc1ccc(NC(=O)C2(C(F)(F)F)CC2)cc1)c1cc(NC(=O)[C@H]2[C@H](c3cc(Cl)cc(Cl)c3)C2(Cl)Cl)ccc1Cl (relative stereo) [PF162, trans-2-Chloro-5-(2,2-dichloro-3-(3,5-dichlorophenyl)cyclopropane-1-carboxamido)-N-(4-(1-(trifluoromethyl)cyclopropane-1-carboxamido)phenyl)benzamide]			50 to 100%	50 to 100%
O=C(Nc1ccc([N+](=O)[O-])cc1)c1cc(NC(=O)[C@H]2[C@H](c3cc(Cl)cc(Cl)c3)C2(Cl)Cl)ccc1Cl (relative stereo) [F137, trans-2-chloro-5-(2,2-dichloro-3-(3,5-dichlorophenyl)cyclopropane-1-carboxamido)-N-(4-nitrophenyl)benzamide]	50 to 100%	50 to 100%		
CN(C(=O)[C@H]1[C@H](c2cc(Cl)cc(Cl)c2)C1(Cl)Cl)c1ccc(Cl)c(C(=O)Nc2ccc(F)cc2)c1 (relative stereo) [F183, trans-2-Chloro-5-(2,2-dichloro-3-(3,5-dichlorophenyl)-N-methylcyclopropane-1-carboxamido)-N-(4-fluorophenyl)benzamide]	50 to 100%	50 to 100%		
Cc1cc(N(C)C(=O)OC(C)(C)C)ccc1N(C)C(=O)c1cc(NC(=O)[C@H]2[C@H](c3cc(Cl)cc(Cl)c3)C2(Cl)Cl)ccc1Cl (relative stereo) [F220, trans-tert-Butyl-(4-(2-chloro-5-(2,2-dichloro-3-(3,5-dichlorophenyl)cyclopropane-1-carboxamido)-N-methylbenzamido)-3-methylphenyl)(methyl)carbamate]	50 to 100%	50 to 100%		
N#Cc1ccc(NC(=O)c2cc(NC(=O)[C@H]3[C@H](c4cc(Cl)cc(Cl)c4)C3(Cl)Cl)ccc2Cl)cc1 (relative stereo) [F5, trans-2-Chloro-N-(4-cyanophenyl)-5-(2,2-dichloro-3-(3,5-dichlorophenyl)cyclopropane-1-carboxamido)benzamide]	50 to 100%	50 to 100%		
O=C(Nc1c(F)cccc1F)c1cc(NC(=O)[C@H]2[C@H](c3cc(Br)cc(Br)c3)C2(Cl)Cl)ccc1Cl (relative stereo) [F92, trans-2-Chloro-5-(2,2-dichloro-3-(3,5-dibromophenyl)cyclopropane-1-carboxamido)-N-(2,6-difluorophenyl)benzamide]	50 to 100%	50 to 100%		
CN(C(=O)C(F)(F)F)c1ccc(NC(=O)c2cc(NC(=O)[C@H]3[C@H](c4cc(Cl)cc(Cl)c4)C3(Cl)Cl)ccc2Cl)cc1 (relative stereo) [PF29, trans-2-Chloro-5-(2,2-dichloro-3-(3,5-dichlorophenyl)cyclopropane-1-carboxamido)-N-(4-(2,2,2-trifluoro-N-methylacetamido)phenyl)benzamide]			50 to 100%	50 to 100%
O=C(Nc1cnns1)c1cc(NC(=O)[C@H]2[C@H](c3cc(Cl)cc(Cl)c3)C2(Cl)Cl)ccc1Cl (relative stereo) [F138, trans-2-Chloro-5-(2,2-dichloro-3-(3,5-dichlorophenyl)cyclopropane-1-carboxamido)-N-(1,2,3-thiadiazol-5-yl)benzamide]	50 to 100%	50 to 100%		
Cc1cc(N)ccc1NC(=O)c1cc(NC(=O)[C@H]2[C@H](c3ccc(Cl)c(Br)c3)C2(Cl)Cl)ccc1Cl (relative stereo) [F336, N-(4-Amino-2-methylphenyl)-5-(trans-3-(3-bromo-4-chlorophenyl)-2,2-dichlorocyclopropane-1-carboxamido)-2-chlorobenzamide]	50 to 100%	50 to 100%		
O=C(Nc1c(F)cccc1F)c1cc(NC(=O)[C@H]2[C@H](c3cc(C(F)(F)F)cc(C(F)(F)F)c3)C2(Cl)Cl)ccc1Cl (relative stereo) [F86, trans-5-(3-(3,5-Bis(trifluoromethyl)phenyl)-2,2-dichlorocyclopropane-1-carboxamido)-2-chloro-N-(2,6-difluorophenyl)benzamide]	50 to 100%	50 to 100%		
CN(C(=O)c1cc(NC(=O)[C@H]2[C@H](c3cc(Cl)c(Cl)c(Cl)c3)C2(Cl)Cl)ccc1F)c1ccc(C#N)cc1F (relative stereo) [F105, trans-N-(4-Cyano-2-fluorophenyl)-5-(2,2-dichloro-3-(3,4,5-trichlorophenyl)cyclopropane-1-carboxamido)-2-fluoro-N-methylbenzamide]	50 to 100%	50 to 100%		
N#Cc1ccc(NC(=O)c2cc(NC(=O)[C@H]3[C@H](c4ccc(Cl)c(Cl)c4)C3(Cl)Cl)ccc2F)c(F)c1 (relative stereo) [F94, trans-N-(4-Cyano-2-fluorophenyl)-5-(2,2-dichloro-3-(3,4-dichlorophenyl)cyclopropane-1-carboxamido)-2-fluorobenzamide]	50 to 100%	50 to 100%		
O=C(Nc1ccc2[nH]c(C(F)(F)F)cc2c1)c1cc(NC(=O)[C@H]2[C@H](c3cc(Cl)cc(Cl)c3)C2(Cl)Cl)ccc1Cl (relative stereo) [F465, 2-Chloro-5-(trans)-(2,2-dichloro-3-(3,5-dichlorophenyl)cyclopropane-1-carboxamido)-N-(2-(trifluoromethyl)-1H-indol-5-yl)benzamide]			50 to 100%	50 to 100%
CN(C(=S)c1cc(NC(=O)[C@H]2[C@H](c3cc(Cl)cc(Cl)c3)C2(Cl)Cl)ccc1Cl)c1ccc(F)cc1 (relative stereo) [F112, trans-2,2-Dichloro-N-(4-chloro-3-((4-fluorophenyl)(methyl)carbamothioyl)phenyl)-3-(3,5-dichlorophenyl)cyclopropane-1-carboxamide]	50 to 100%	50 to 100%		
O=C(Nc1nc2cc(Cl)ccc2o1)c1cc(NC(=O)C2C(c3cc(Cl)cc(Cl)c3)C2(Cl)Cl)ccc1Cl (stereo not drawn) [F448, 2-Chloro-N-(5-chlorobenzo[d]oxazol-2-yl)-5-(trans)-2,2-dichloro-3-(3,5-dichlorophenyl)cyclopropane-1-carboxamido)benzamide]			50 to 100%	50 to 100%
O=C(Nc1ccc(F)cc1)c1cccc(NC(=O)[C@H]2[C@H](c3cc(Cl)cc(Cl)c3)C2(Cl)Cl)n1 (relative stereo) [F133, trans-6-(2,2-Dichloro-3-(3,5-dichlorophenyl)cyclopropane-1-carboxamido)-N-(4-fluorophenyl)picolinamide]	50 to 100%	50 to 100%		
O=C(Nc1c(F)cccc1F)c1cc(NC(=O)C2C(c3cc(Cl)cc(Cl)c3)C2(Cl)Br)ccc1Cl (stereo not drawn) [F168, 5-(trans)-2-Bromo-2-chloro-3-(3,5-dichlorophenyl)cyclopropane-1-carboxamido)-2-chloro-N-(2,6-difluorophenyl)benzamide]	50 to 100%	50 to 100%		
